Test results reported in publication PMC4767940 (PLoS ONE, 2016).

Assays:
[1] = system: CD8+ T cells; settings: cited from earlier work
[2] = biological target: H-2D^b on the surface of RMA-S cells (mouse (endogenous in RMA/S)); test: flow cytometry on cells

| Compound | formation of memory CD8+ T cell responses [1] | half-life of the peptide on H-2D^b [2] |
| --- | --- | --- |
| O=CC[C@@H](O)[C@H](O)[C@H](O)CO [2-deoxyglucose] | augments the formation of memory CD8+ T cell responses |  |
| GP33-41 peptide (wildtype GP33 epitope of LCMV) |  | > 5 h |
